Bridge positions count the residues as written; N and C are the ends. Square brackets hold non-standard residues; d marks the D form. Peptide text beside a SMILES is read from it. R8 = C=CCCCCCC[C@@](C)(N)C(=O)O; S5 = C=CCCC[C@](C)(N)C(=O)O; Nle = CCCC[C@H](N)C(=O)O
Assays:
HRE-bla ME-180 cells [1] = assay: Cell proliferation assay (viability, MTT, 1% FBS); type: cell-based, human
Outline: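 Viable cell number was measured with the CellTiter 96 (MTT) kit after compounds were applied for a 16 h normoxic (21% O2) pretreatment, followed by further normoxic or hypoxic (1% O2) culture. Cells: 2×10^4 ME-180 per well, Opti-MEM + 1% FBS, 0.5% DMSO vehicle.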

HRE-bla ME-180 cells [2] = assay: Reporter gene assay (HRE-bla ME-180 HIF reporter, GeneBLAzer); type: cell-based, human; details: for EC50: 24 hour normoxia
Outline: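 A FRET β-lactamase readout of HIF transcription was used. After compound treatment in 0.3% DMSO/media under normoxic conditions, 20 μl of 6× LiveBLAzer-FRET B/G (CCF4-AM) substrate was added. Plates sat 3 hr at room temperature in the dark and were read at 409 Ex/460Em and 409Ex/530Em on a Synergy 2. Inhibition was compared against DMSO vehicle controls, with chetomin as positive control.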

[3] = target: T1, flag-tagged HIF1α (AA 786-826) / His6-tagged p300 (AA 323-423) complex (Homo sapiens, UniProt Q09472); assay: HIF1α p300 displacement assay (TR FRET, +CHAPS); type: binding; details: read-out: IC50 (nM) (HIF1α_p300 Displacement + CHAPS)
T1 construct: His6-tagged p300 (AA 323-423); made in house; host or cells: E. coli (pETDuet vector)
T1 sequence (Q09472 323-423, one chain of several): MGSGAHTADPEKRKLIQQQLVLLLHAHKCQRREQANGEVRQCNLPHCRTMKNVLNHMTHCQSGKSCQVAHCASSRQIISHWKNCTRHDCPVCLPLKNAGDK
Outline: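 In this TR-FRET displacement format, peptides compete HIF1α C-terminal transactivation domain off p300-CH. They were preincubated 1 h at room temperature with 300 nM complex in HEPES pH 7.4/NaCl buffer with 7.5 mM CHAPS and 1 mM DTT. Anti-His-D2 (4 nM) and anti-Flag-K (0.5 μM) followed for 2 h, and a one-site fit of the fluorescence ratio gave IC50.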

Compound | EC50 (HRE-bla ME-180 cells [2]) [µM] | IC50 [3] [nM] | Viability 1% FBS AVG (MTT V3-24 hr Normoxia) (μM) (HRE-bla ME-180 cells [1]) | 18 h Avg % max inhibition at top conc (HIF Rptr-24 hrs normoxia) (μM) (HRE-bla ME-180 cells [2])
CC[C@H](C)[C@H](NC(=O)[C@H](Cc1ccccc1)NC(C)=O)C(=O)N[C@@H](CC(=O)O)C(=O)N[C@@H](CCC(=O)O)C(=O)N[C@@H](CCC(=O)O)C(=O)N[C@H](C(=O)N[C@@H](CC(C)C)C(=O)N[C@@H](CCSC)C(=O)N[C@@]1(C)CCCC=CCCC[C@@](C)(C(=O)N[C@@H](CCSC)C(=O)N[C@@H](C)C(=O)N[C@@H](Cc2ccccc2)C(N)=O)NC(=O)[C@H]([C@@H](C)CC)NC(=O)[C@H](C(C)C)NC(=O)[C@H](CC(C)C)NC1=O)C(C)C [SP-226] (Ac-FIDEEVLM[S5]LVI[S5]MAF-NH2; staple 9-13) | > 30 | 400 to 700 | ++++ (≥30: ++++) | ++ (≤10 but <25: ++)
CCCC[C@H](NC(=O)[C@H](CC(C)C)NC(=O)[C@@H](NC(=O)[C@H](CCC(=O)O)NC(=O)[C@H](CCC(=O)O)NC(=O)[C@H](CC(=O)O)NC(=O)[C@@H](NC(=O)[C@H](CC(N)=O)NC(=O)[C@@H](NC(=O)[C@H](CCC(N)=O)NC(=O)[C@H](CC(=O)O)NC(=O)[C@]1(C)CCCC=CCCCCCC[C@@](C)(NC(=O)[C@H](CCC(N)=O)NC(=O)[C@H](CC(C)C)NC(=O)[C@H](CC(C)C)NC(C)=O)C(=O)N[C@@H](CCC(=O)O)C(=O)N[C@@H](CCC(=O)O)C(=O)N[C@@H](CC(C)C)C(=O)N[C@@H](CC(C)C)C(=O)N[C@@H](CCCNC(=N)N)C(=O)N[C@@H](C)C(=O)N1)C(C)C)[C@@H](C)CC)C(C)C)C(=O)N[C@@]1(C)CCCC=CCCC[C@@](C)(C(=O)N[C@@H](CCCC)C(=O)NCC(N)=O)NC(=O)[C@H]([C@@H](C)CC)NC(=O)[C@H](C(C)C)NC(=O)[C@H](CC(C)C)NC1=O [SP-341] (Ac-LLQ[R8]EELLRA[S5]DQVNIDEEVL[Nle][S5]LVI[S5][Nle]G-NH2; staple 4-11, 23-27) | > 30 | 200 to 400 | ++++ (≥30: ++++) | + (<10: +)
CCCC[C@H](NC(=O)[C@H](CCC(=O)O)NC(=O)[C@]1(C)CCCC=CCCCCCC[C@@](C)(NC(=O)[C@H](CCC(=O)O)NC(=O)[C@H](CC(=O)O)NC(=O)[C@@H](NC(=O)[C@H](CC(N)=O)NC(=O)[C@@H](NC(=O)[C@]2(C)CCCC=CCCCCCC[C@@](C)(NC(=O)[C@H](C)NC(=O)CNC(=O)[C@H](CCC(N)=O)NC(=O)[C@H](CC(C)C)NC(=O)[C@H](CC(C)C)NC(C)=O)C(=O)N[C@@H](CC(C)C)C(=O)N[C@@H](CC(C)C)C(=O)N[C@@H](CCCNC(=N)N)C(=O)N[C@@H](C)C(=O)N[C@@H](CC(C)C)C(=O)N[C@@H](CC(=O)O)C(=O)N2)C(C)C)[C@@H](C)CC)C(=O)N[C@@H](C(C)C)C(=O)N[C@@H](CC(C)C)C(=O)N[C@@H](CCCC)C(=O)N[C@@H](CO)C(=O)N[C@@H](CC(C)C)C(=O)N[C@@H](C(C)C)C(=O)N1)C(N)=O [SP-353] (Ac-LLQGA[R8]LLRALD[S5]VNIDE[R8]VL[Nle]SLV[S5]E[Nle]-NH2; staple 6-13, 19-26) | > 30 | ≤ 200 | ++++ (≥30: ++++) | +++ (≤25 but <50: +++)
CCCC[C@H](NC(=O)[C@H](CC(C)C)NC(=O)[C@@H](NC(=O)[C@H](CCC(=O)O)NC(=O)[C@H](CCC(=O)O)NC(=O)[C@H](CC(=O)O)NC(=O)[C@@H](NC(=O)[C@H](CC(N)=O)NC(=O)[C@@H](NC(=O)[C@H](CCC(N)=O)NC(=O)[C@]1(C)CCCC=CCCCCCC[C@@](C)(NC(=O)CNC(=O)[C@H](CCC(N)=O)NC(=O)[C@H](CC(C)C)NC(=O)[C@H](CC(C)C)NC(C)=O)C(=O)N[C@@H](CCC(=O)O)C(=O)N[C@@H](CC(C)C)C(=O)N[C@@H](CC(C)C)C(=O)N[C@@H](CCCNC(=N)N)C(=O)N[C@@H](C)C(=O)N[C@@H](CC(C)C)C(=O)N1)C(C)C)[C@@H](C)CC)C(C)C)C(=O)N[C@@]1(C)CCCC=CCCC[C@@](C)(C(=O)N[C@@H](CCCC)C(=O)NCC(N)=O)NC(=O)[C@H]([C@@H](C)CC)NC(=O)[C@H](C(C)C)NC(=O)[C@H](CC(C)C)NC1=O [SP-342] (Ac-LLQG[R8]ELLRAL[S5]QVNIDEEVL[Nle][S5]LVI[S5][Nle]G-NH2; staple 5-12, 23-27) | > 30 | > 700 | ++++ (≥30: ++++) | +++ (≤25 but <50: +++)
CCCC[C@H](NC(=O)[C@H](CCC(=O)O)NC(=O)[C@]1(C)CCCC=CCCCCCC[C@@](C)(NC(=O)[C@H](CCC(=O)O)NC(=O)[C@H](CC(=O)O)NC(=O)[C@@H](NC(=O)[C@H](CC(N)=O)NC(=O)[C@@H](NC(=O)[C@H](CCC(N)=O)NC(=O)[C@]2(C)CCCC=CCCC[C@](C)(NC(=O)[C@H](CC(C)C)NC(=O)[C@H](C)NC(=O)[C@H](CCC(=O)O)NC(=O)CNC(=O)[C@H](CCC(N)=O)NC(=O)[C@H](CC(C)C)NC(=O)[C@H](CC(C)C)NC(C)=O)C(=O)N[C@@H](CCCNC(=N)N)C(=O)N[C@@H](C)C(=O)N[C@@H](CC(C)C)C(=O)N2)C(C)C)[C@@H](C)CC)C(=O)N[C@@H](C(C)C)C(=O)N[C@@H](CC(C)C)C(=O)N[C@@H](CCCC)C(=O)N[C@@H](CO)C(=O)N[C@@H](CC(C)C)C(=O)N[C@@H](C(C)C)C(=O)N1)C(N)=O [SP-361] (Ac-LLQGEAL[S5]RAL[S5]QVNIDE[R8]VL[Nle]SLV[S5]E[Nle]-NH2; staple 8-12, 19-26) | > 30 | > 700 | ++++ (≥30: ++++) | ++ (≤10 but <25: ++)

Further lines, with some results ahead:

EC50 (HRE-bla ME-180 cells [2]) [µM] | IC50 [3] [nM] | Compound | Viability 1% FBS AVG (MTT V3-24 hr Normoxia) (μM) (HRE-bla ME-180 cells [1]) | 18 h Avg % max inhibition at top conc (HIF Rptr-24 hrs normoxia) (μM) (HRE-bla ME-180 cells [2])
> 30 | 400 to 700 | CCCC[C@H](NC(=O)[C@]1(C)CCCC=CCCC[C@](C)(NC(=O)[C@H](CCCC)NC(=O)[C@H](CC(C)C)NC(=O)[C@@H](NC(=O)[C@H](CCC(=O)O)NC(=O)[C@H](CCC(=O)O)NC(=O)[C@H](CC(=O)O)NC(=O)[C@@H](NC(=O)[C@H](CC(N)=O)NC(=O)[C@@H](NC(=O)[C@H](CCC(N)=O)NC(=O)[C@H](CC(=O)O)NC(=O)[C@H](CC(C)C)NC(=O)[C@H](C)NC(=O)[C@H](CCCNC(=N)N)NC(=O)[C@H](CC(C)C)NC(=O)[C@H](CC(C)C)NC(=O)[C@H](CCC(=O)O)NC(=O)[C@H](CCC(=O)O)NC(=O)CNC(=O)[C@H](CCC(N)=O)NC(=O)[C@H](CC(C)C)NC(=O)[C@H](CC(C)C)NC(C)=O)C(C)C)[C@@H](C)CC)C(C)C)C(=O)N[C@@H](CC(C)C)C(=O)N[C@@H](C(C)C)C(=O)N[C@@H]([C@@H](C)CC)C(=O)N1)C(N)=O [SP-335] (Ac-LLQGEELLRALDQVNIDEEVL[Nle][S5]LVI[S5][Nle]-NH2; staple 23-27) | ++++ (≥30: ++++) | + (<10: +)
> 30 | > 700 | CCCC[C@H](NC(=O)[C@H](CCC(=O)O)NC(=O)[C@]1(C)CCCC=CCCCCCC[C@@](C)(NC(=O)[C@H](CCC(=O)O)NC(=O)[C@H](CC(=O)O)NC(=O)[C@@H](NC(=O)[C@H](CC(N)=O)NC(=O)[C@@H](NC(=O)[C@H](CCC(N)=O)NC(=O)[C@H](CC(=O)O)NC(=O)[C@H](CC(C)C)NC(=O)[C@H](C)NC(=O)[C@H](CCCNC(=N)N)NC(=O)[C@H](CC(C)C)NC(=O)[C@H](CC(C)C)NC(=O)[C@H](CCC(=O)O)NC(=O)[C@H](CCC(=O)O)NC(=O)CNC(=O)[C@H](CCC(N)=O)NC(=O)[C@H](CC(C)C)NC(=O)[C@H](CC(C)C)NC(C)=O)C(C)C)[C@@H](C)CC)C(=O)N[C@@H](C(C)C)C(=O)N[C@@H](CC(C)C)C(=O)N[C@@H](CCCC)C(=O)N[C@@H](CO)C(=O)N[C@@H](CC(C)C)C(=O)N[C@@H](C(C)C)C(=O)N1)C(N)=O [SP-336] (Ac-LLQGEELLRALDQVNIDE[R8]VL[Nle]SLV[S5]E[Nle]-NH2; staple 19-26) | ++++ (≥30: ++++) | + (<10: +)
> 30 | 400 to 700 | CC[C@H](C)[C@H](NC(=O)[C@H](CC(N)=O)NC(=O)[C@@H](NC(=O)[C@H](CCC(N)=O)NC(=O)[C@H](CC(=O)O)NC(=O)[C@H](CC(C)C)NC(=O)[C@H](C)NC(=O)[C@H](CCCNC(=N)N)NC(=O)[C@H](CC(C)C)NC(=O)[C@H](CC(C)C)NC(=O)[C@H](CCC(=O)O)NC(=O)[C@H](CCC(=O)O)NC(=O)CNC(=O)[C@H](CCC(N)=O)NC(=O)[C@H](CC(C)C)NC(=O)[C@H](CC(C)C)NC(C)=O)C(C)C)C(=O)N[C@@H](CC(=O)O)C(=O)N[C@@H](CCC(=O)O)C(=O)N[C@@]1(C)CCCC=CCCC[C@@](C)(C(=O)N[C@@H](CC(C)C)C(=O)N[C@H](C(=O)N[C@H](C(=O)N[C@@H](CCC(=O)O)C(=O)N[C@@H](CCSC)C(N)=O)[C@@H](C)CC)C(C)C)NC(=O)[C@H](CCSC)NC(=O)[C@H](CC(C)C)NC(=O)[C@H](C(C)C)NC1=O [SP-318] (Ac-LLQGEELLRALDQVNIDE[S5]VLM[S5]LVIEM-NH2; staple 19-23) | ++++ (≥30: ++++) | + (<10: +)
